The values that follow come from article PMC9182086, “Identification of New Non-BBB Permeable Tryptophan Hydroxylase Inhibitors for Treating Obesity and Fatty Liver Disease” (Molecules, 2022).

A word on the inhibition: it is the share of the control response that was lost under treatment.

The nature of data set [1]: Liver microsomal stability (human). The settings on record: after 30 min incubation, 1 µM. Type of data set: in vitro ADME. The protocol: For the liver microsomal activity, test compounds were incubated with rat and mouse’s liver microsomes, respectively, at a final concentration of 1 µM, in the presence of an NADPH regeneration system in 0.1 M potassium phosphate buffer (pH 7.4) for […] at 37 °C in shaking incubator. The microsomal reaction was terminated by adding four volumes of ice-cold acetonitrile and then centrifuged at 4000 rpm for 20 min. The supernatant was collected and analyzed by a LC-MS/MS system. The percentage of the parent compound remaining was calculated by comparing peak areas.
(Liver microsomes are a subcellular fraction often used to study metabolism.)

For data set [2], the target named is T1, hERG channel protein (Homo sapiens, UniProt Q12809).
T1 construct: purchased Thermo Fisher Scientific, Inc
Briefly: hERG inhibition (Predictor hERG FP binding kit). The settings on record: at 10 uM. How it is done: The inhibition of binding affinity by small molecules was measured using the PredictorTM hERG FP kit (Thermo Fisher Scientific, Inc., Rockford, IL, USA). The procedure was carried out in accordance with the manufacturer's instructions. Briefly, tracer (PredictorTM hERG tracer red) was prepared with dilution in the binding buffer. The binding assay was conducted in 384 well black flat-bottom microplates (Corning Life Sciences, Lowell, MA, USA) after the serial addition of 5 μL of a 4 nM tracer, 5 μL of test compounds, and a 10 μL membrane fraction containing hERG channel protein. The mixtures were incubated at room temperature for 2 h. The fluorescence polarization (FP) was measured with an excitation filter of 530 nm and an emission filter of 585 nm using a microplate reader (Infinite […]; Tecan, Mannedorf, Switzerland).

The target of data set [3] is T2, CYP2D6 (Homo sapiens, UniProt P10635).
T2 construct: purchased Promega Corp. V9890
Briefly: CYP inhibition assay (P450-Glo) CYP2D6. Type of data set: in vitro ADME. The settings on record: P450-Glo CYP2D6 Screening System (CYP enzyme), read-out: CYP inhibition 2D6. The text has this:
(§1) Five major screening systems: P450-Glo CYP1A2 Screening System (Catalog# V9770), P450-Glo CYP2C9 Screening System (Catalog# V9790), P450-Glo CYP2C19 (Catalog# V9880), P450-Glo CYP 2D6 (Catalog# V9890), and P450-Glo CYP3A4 (Catalog# V9920) were attained from Promega Corp. (Madison, WI). α-naphthoflavone, sulfaphenazole, amitriptyline, quinidine, and ketoconazole were identified as positive control inhibitors for CYP1A2, CYP2C9, CYP2C19, CYP2D6, and CYP3A4, respectively. The CYP enzyme and substrate were combined in a potassium phosphate (KPO4) buffer and the reaction is initiated by adding an NADPH regenerating system. The volume of the mixture (12.5 μL in a 96-well plate) was combined with an equal volume of test compound solution and positive control inhibitor (12.5 μL added to make the volume 25 μL). The reaction of the NADPH regeneration system was initiated by adding a 2× concentration of NADPH solution. Then an equal volume of luciferin detection reagent was added. The plates were incubated at room temperature for 20 min and the luminescence signal was measured by a microplate reader device.

Data set [4] deals with T3, CYP1A2 (Homo sapiens, UniProt P05177).
T3 construct: purchased Promega Corp. V9770
T3 sequence (P05177 1-516): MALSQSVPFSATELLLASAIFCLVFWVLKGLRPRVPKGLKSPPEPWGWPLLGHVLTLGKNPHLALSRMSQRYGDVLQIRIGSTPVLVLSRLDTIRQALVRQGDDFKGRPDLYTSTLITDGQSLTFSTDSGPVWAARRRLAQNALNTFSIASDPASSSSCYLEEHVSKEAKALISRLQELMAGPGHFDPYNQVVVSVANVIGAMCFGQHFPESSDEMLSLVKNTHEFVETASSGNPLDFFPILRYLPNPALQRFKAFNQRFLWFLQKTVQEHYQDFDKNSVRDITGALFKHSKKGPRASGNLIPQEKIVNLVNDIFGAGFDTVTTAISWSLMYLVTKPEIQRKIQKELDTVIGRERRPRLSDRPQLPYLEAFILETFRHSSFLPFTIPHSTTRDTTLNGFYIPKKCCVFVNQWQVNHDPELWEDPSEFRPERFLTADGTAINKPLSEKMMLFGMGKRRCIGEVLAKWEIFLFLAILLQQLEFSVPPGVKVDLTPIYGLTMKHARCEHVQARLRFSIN
Briefly: CYP inhibition assay (P450-Glo) CYP1A2. The data set is classed as in vitro ADME. The settings on record: P450-Glo CYP1A2 Screening System (CYP enzyme), read-out: CYP inhibition 1A2.
Description: as §1

T1 sequence (Q12809 whole entry): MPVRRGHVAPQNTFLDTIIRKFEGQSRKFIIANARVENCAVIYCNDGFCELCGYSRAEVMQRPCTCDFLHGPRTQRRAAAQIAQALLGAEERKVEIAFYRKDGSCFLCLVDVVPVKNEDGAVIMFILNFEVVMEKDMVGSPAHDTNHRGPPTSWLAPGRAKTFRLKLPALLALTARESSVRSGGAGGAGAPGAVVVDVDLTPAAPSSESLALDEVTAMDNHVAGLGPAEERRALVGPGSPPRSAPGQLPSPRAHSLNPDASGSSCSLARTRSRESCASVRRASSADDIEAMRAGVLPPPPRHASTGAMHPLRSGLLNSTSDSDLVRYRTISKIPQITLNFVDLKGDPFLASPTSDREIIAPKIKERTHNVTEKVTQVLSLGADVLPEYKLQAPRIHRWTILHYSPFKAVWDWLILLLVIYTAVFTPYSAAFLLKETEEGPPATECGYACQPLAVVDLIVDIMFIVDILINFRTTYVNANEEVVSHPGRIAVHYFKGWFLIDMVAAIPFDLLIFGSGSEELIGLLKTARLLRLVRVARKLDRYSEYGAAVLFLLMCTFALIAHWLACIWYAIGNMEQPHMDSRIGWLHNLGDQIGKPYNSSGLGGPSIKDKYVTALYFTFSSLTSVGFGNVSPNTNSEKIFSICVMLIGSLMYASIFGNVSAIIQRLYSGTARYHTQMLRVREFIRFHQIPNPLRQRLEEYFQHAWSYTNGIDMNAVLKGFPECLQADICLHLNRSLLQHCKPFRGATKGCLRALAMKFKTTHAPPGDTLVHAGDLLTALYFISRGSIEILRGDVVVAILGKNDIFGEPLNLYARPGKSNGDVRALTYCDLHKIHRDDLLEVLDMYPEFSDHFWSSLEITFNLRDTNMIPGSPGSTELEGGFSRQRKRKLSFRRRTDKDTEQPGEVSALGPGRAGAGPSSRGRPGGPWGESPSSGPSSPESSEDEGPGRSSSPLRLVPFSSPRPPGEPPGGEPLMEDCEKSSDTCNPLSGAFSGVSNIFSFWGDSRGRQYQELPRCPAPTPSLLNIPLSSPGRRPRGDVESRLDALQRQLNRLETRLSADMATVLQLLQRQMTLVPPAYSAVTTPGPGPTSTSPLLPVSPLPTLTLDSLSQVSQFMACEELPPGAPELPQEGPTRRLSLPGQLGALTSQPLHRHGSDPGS
T2 sequence (P10635 whole entry): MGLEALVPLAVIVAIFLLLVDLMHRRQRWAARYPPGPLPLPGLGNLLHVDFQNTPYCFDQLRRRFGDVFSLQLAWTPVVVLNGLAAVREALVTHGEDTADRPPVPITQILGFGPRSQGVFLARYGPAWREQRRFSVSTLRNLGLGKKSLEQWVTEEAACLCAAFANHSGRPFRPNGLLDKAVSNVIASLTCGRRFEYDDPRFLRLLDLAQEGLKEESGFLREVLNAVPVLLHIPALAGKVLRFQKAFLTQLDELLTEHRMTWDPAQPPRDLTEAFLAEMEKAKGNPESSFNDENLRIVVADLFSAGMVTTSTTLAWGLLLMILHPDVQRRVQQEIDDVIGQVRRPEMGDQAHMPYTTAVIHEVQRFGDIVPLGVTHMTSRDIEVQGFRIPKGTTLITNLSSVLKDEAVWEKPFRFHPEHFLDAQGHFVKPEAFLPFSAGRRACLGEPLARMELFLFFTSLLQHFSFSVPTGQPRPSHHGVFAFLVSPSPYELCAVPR

As for `Cc1ccn(-c2cc(Cl)ccc2[C@@H](Oc2ncnc3c(-c4ccc(C[C@H](N)C(=O)O)cc4)csc23)C(F)(F)F)n1.Cl` [Compound 18i, (S)-2-amino-3-(4-(4-((R)-1-(4-chloro-2-(3-methyl-1H-pyrazol-1-yl)phenyl)-2,2,2-trifluoroethoxy)thieno[3,2-d]pyrimidin-7-yl)phenyl)propanoic acid hydrochloride], the “Liver microsomal stability (human), parent remained” value in data set [1] was 99% parent remained after 30 min incubation. For the same molecule, the Herg inhibition in data set [2] is recorded as under 1% inhibition at 10 uM. Also, the inhibition at 10 µM in data set [3] was 24.6%; in data set [4], 0.1%.
